According to PubChem BioAssay (NCI):
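These data come from cells grown in 96-well plates and exposed to compound for 48 hours at five concentrations. GI50 is the concentration that inhibits growth by half. TGI marks complete inhibition of growth.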

How the values were obtained:
Test in all cases: inhibition of tumour cell growth, NCI panel, 48 h
A549 NSCLC = test system: A549 NSCLC
OVCAR-3 ovarian = test system: OVCAR-3 ovarian
SK-MEL-28 melanoma = test system: SK-MEL-28 melanoma
IGROV1 ovarian = test system: IGROV1 ovarian
SNB-75 CNS = test system: SNB-75 CNS
HCT-15 colon = test system: HCT-15 colon
PC-3 prostate = test system: PC-3 prostate
MDA-MB-435 = test system: MDA-MB-435
CAKI-1 renal = test system: CAKI-1 renal
EKVX NSCLC = test system: EKVX NSCLC
SNB-19 CNS = test system: SNB-19 CNS
786-0 renal = test system: 786-0 renal
K-562 leukemia = test system: K-562 leukemia
SK-MEL-2 melanoma = test system: SK-MEL-2 melanoma
SF-268 CNS = test system: SF-268 CNS
M14 melanoma = test system: M14 melanoma
ACHN renal = test system: ACHN renal
SK-MEL-5 melanoma = test system: SK-MEL-5 melanoma
OVCAR-8 ovarian = test system: OVCAR-8 ovarian
DU-145 prostate = test system: DU-145 prostate
LOX IMVI melanoma = test system: LOX IMVI melanoma
HS 578T breast = test system: HS 578T breast
RXF 393 renal = test system: RXF 393 renal
A498 renal = test system: A498 renal
MOLT-4 leukemia = test system: MOLT-4 leukemia
HCC-2998 colon = test system: HCC-2998 colon
MDA-MB-231 breast = test system: MDA-MB-231 breast
NCI-H23 lung = test system: NCI-H23 lung
MCF7 breast = test system: MCF7 breast
SN12C renal = test system: SN12C renal
NCI-H522 lung = test system: NCI-H522 lung
SF-539 CNS = test system: SF-539 CNS
SF-295 CNS = test system: SF-295 CNS
COLO 205 colon = test system: COLO 205 colon
HT29 colon = test system: HT29 colon
SK-OV-3 ovarian = test system: SK-OV-3 ovarian
BT-549 breast = test system: BT-549 breast
SR leukemia = test system: SR leukemia
HOP-62 NSCLC = test system: HOP-62 NSCLC
NCI-H226 lung = test system: NCI-H226 lung
HCT-116 colon = test system: HCT-116 colon
CCRF-CEM leukemia = test system: CCRF-CEM leukemia
U251 CNS = test system: U251 CNS
TK-10 renal = test system: TK-10 renal
OVCAR-4 ovarian = test system: OVCAR-4 ovarian
MALME-3M melanoma = test system: MALME-3M melanoma
KM12 colon = test system: KM12 colon
UO-31 renal = test system: UO-31 renal
T-47D breast = test system: T-47D breast
HL-60(TB) leukemia = test system: HL-60(TB) leukemia
NCI/ADR-RES ovarian = test system: NCI/ADR-RES ovarian
SW-620 colon = test system: SW-620 colon
MDA-MB-468 breast = test system: MDA-MB-468 breast
NCI-H460 lung = test system: NCI-H460 lung
OVCAR-5 ovarian = test system: OVCAR-5 ovarian
UACC-257 melanoma = test system: UACC-257 melanoma
UACC-62 melanoma = test system: UACC-62 melanoma
HOP-92 NSCLC = test system: HOP-92 NSCLC
RPMI-8226 leukemia = test system: RPMI-8226 leukemia

COc1ccc(OC)c(-c2cc(-c3c[nH]c4ccccc34)nc(N)c2C#N)c1
GI50 (A549 NSCLC): 3.74 µM | TGI (A549 NSCLC): 27.5 µM | GI50 (OVCAR-3 ovarian): 2.94 µM | TGI (OVCAR-3 ovarian): 14.2 µM | GI50 (SK-MEL-28 melanoma): 3.46 µM | TGI (SK-MEL-28 melanoma): 17.8 µM | GI50 (IGROV1 ovarian): 5.59 µM | TGI (IGROV1 ovarian): 23.1 µM | GI50 (SNB-75 CNS): 1.3 µM | TGI (SNB-75 CNS): 5.14 µM | GI50 (HCT-15 colon): 0.903 µM | TGI (HCT-15 colon): 13.4 µM | GI50 (PC-3 prostate): 1.93 µM | TGI (PC-3 prostate): 15.5 µM | GI50 (MDA-MB-435): 0.39 µM | TGI (MDA-MB-435): 1.86 µM | GI50 (CAKI-1 renal): 1.51 µM | TGI (CAKI-1 renal): 20.6 µM | GI50 (EKVX NSCLC): 1.57 µM | TGI (EKVX NSCLC): 16.4 µM | GI50 (SNB-19 CNS): 5.47 µM | TGI (SNB-19 CNS): 19.3 µM | GI50 (786-0 renal): 2.61 µM | TGI (786-0 renal): 9.13 µM | GI50 (K-562 leukemia): 0.881 µM | TGI (K-562 leukemia): 82.3 µM | GI50 (SK-MEL-2 melanoma): 2.39 µM | TGI (SK-MEL-2 melanoma): 6.58 µM | GI50 (SF-268 CNS): 3.63 µM | TGI (SF-268 CNS): 19 µM | GI50 (M14 melanoma): 1.6 µM | TGI (M14 melanoma): 11.6 µM | GI50 (ACHN renal): 4.92 µM | TGI (ACHN renal): 22.7 µM | GI50 (SK-MEL-5 melanoma): 0.804 µM | TGI (SK-MEL-5 melanoma): 4.18 µM | GI50 (OVCAR-8 ovarian): 4.94 µM | TGI (OVCAR-8 ovarian): 18.2 µM | GI50 (DU-145 prostate): 8.2 µM | TGI (DU-145 prostate): 27.5 µM | GI50 (LOX IMVI melanoma): 2.95 µM | TGI (LOX IMVI melanoma): 12.8 µM | GI50 (HS 578T breast): 2.17 µM | TGI (HS 578T breast): 8.13 µM | GI50 (RXF 393 renal): 1.77 µM | TGI (RXF 393 renal): 10.4 µM | GI50 (A498 renal): 8.86 µM | TGI (A498 renal): 21.9 µM | GI50 (MOLT-4 leukemia): 3.84 µM | TGI (MOLT-4 leukemia): 27 µM | GI50 (HCC-2998 colon): 2.98 µM | TGI (HCC-2998 colon): 13.9 µM | GI50 (MDA-MB-231 breast): 2.06 µM | TGI (MDA-MB-231 breast): 12.6 µM | GI50 (NCI-H23 lung): 2.82 µM | TGI (NCI-H23 lung): 15.2 µM | GI50 (MCF7 breast): 0.135 µM | TGI (MCF7 breast): 12.5 µM | GI50 (SN12C renal): 5.06 µM | TGI (SN12C renal): 17.7 µM | GI50 (NCI-H522 lung): 0.736 µM | TGI (NCI-H522 lung): 7.28 µM | GI50 (SF-539 CNS): 2.9 µM | TGI (SF-539 CNS): 11.7 µM | GI50 (SF-295 CNS): 3.43 µM | TGI (SF-295 CNS): 13 µM | GI50 (COLO 205 colon): 2.81 µM | TGI (COLO 205 colon): 10.7 µM | GI50 (HT29 colon): 2.74 µM | TGI (HT29 colon): 12.3 µM | GI50 (SK-OV-3 ovarian): 3.63 µM | TGI (SK-OV-3 ovarian): 18 µM | GI50 (BT-549 breast): 1.96 µM | TGI (BT-549 breast): 12.3 µM | GI50 (SR leukemia): 0.539 µM | TGI (SR leukemia): 21.2 µM | GI50 (HOP-62 NSCLC): 2.88 µM | TGI (HOP-62 NSCLC): 16.2 µM | GI50 (NCI-H226 lung): 5.81 µM | TGI (NCI-H226 lung): 20.5 µM | GI50 (HCT-116 colon): 2.42 µM | TGI (HCT-116 colon): 13.2 µM | GI50 (CCRF-CEM leukemia): 2.4 µM | TGI (CCRF-CEM leukemia): 28.8 µM | GI50 (U251 CNS): 3.2 µM | TGI (U251 CNS): 13.8 µM | GI50 (TK-10 renal): 11.1 µM | TGI (TK-10 renal): 33.7 µM | GI50 (OVCAR-4 ovarian): 5.42 µM | TGI (OVCAR-4 ovarian): 25.3 µM | GI50 (MALME-3M melanoma): 3.25 µM | TGI (MALME-3M melanoma): 16.7 µM | GI50 (KM12 colon): 2.71 µM | TGI (KM12 colon): 13.6 µM | GI50 (UO-31 renal): 3.9 µM | TGI (UO-31 renal): 18.4 µM | GI50 (T-47D breast): 2.18 µM | TGI (T-47D breast): 12.6 µM | GI50 (HL-60(TB) leukemia): 2.42 µM | TGI (HL-60(TB) leukemia): 25.4 µM | GI50 (NCI/ADR-RES ovarian): 1.22 µM | TGI (NCI/ADR-RES ovarian): 5.02 µM | GI50 (SW-620 colon): 2.9 µM | TGI (SW-620 colon): 15.6 µM | GI50 (MDA-MB-468 breast): 0.0659 µM | TGI (MDA-MB-468 breast): 0.369 µM | GI50 (NCI-H460 lung): 1.58 µM | TGI (NCI-H460 lung): 13.2 µM | GI50 (OVCAR-5 ovarian): 5.94 µM | TGI (OVCAR-5 ovarian): 21.8 µM | GI50 (UACC-257 melanoma): 9.47 µM | TGI (UACC-257 melanoma): 21.5 µM | GI50 (UACC-62 melanoma): 2.67 µM | TGI (UACC-62 melanoma): 13.5 µM | GI50 (HOP-92 NSCLC): 1.3 µM | TGI (HOP-92 NSCLC): 4.38 µM | GI50 (RPMI-8226 leukemia): 1.95 µM | TGI (RPMI-8226 leukemia): > 100 µM
